From article PMC10788912 (Journal of Medicinal Chemistry, 2023)
Read-outs that look alike come from different tables or passages of the source.

Tests used:
[1] = system: human cervix adenocarcinoma (HeLa) cells; assay: Phototoxicity testing, MTT assay, HeLa; type: cell-based
Protocol: (§1) The cells were treated with tested compounds diluted in Earle’s balanced salt solution (EBSS) for 1 h in the dark to allow the complexes to penetrate the cells. Afterward, the cells were irradiated for 1 h with blue light (LZC-4 photoreactor equipped with 16 lamps LZC-420, λmax = 420 nm) or sham irradiated. EBSS containing an Ir complex was then removed, and cells were incubated in the complete, drug-free Dulbecco’s modified Eagle’s medium (DMEM).
(§2) The metabolic activity of the cells (proportional to number of viable cells) was determined 72 h after irradiation using the standard 3-[4,5-dimethylthiazol-2-yl]-2,5 diphenyl tetrazolium bromide (MTT) assay. […] For comparative purposes (and at the reviewer’s request), the clinically used metallodrug cisplatin was included in the experiment.
Therefore, the photoactivation of Ir2 was tested also using a green (λmax = 545 nm) or red (λmax = 613 nm) light irradiation. For this experiment, samples were irradiated with a visible cool white lamp (LZC-Vis, Luzchem), and the appropriate green or red filter was applied; spectral characteristics can be seen in Figure S58.
The phototoxic potency of Ir complexes 1–4 was determined against human cancer Hela, A375, and HCT116 cell lines. […] The number of cells was determined using a standard MTT or SRB assay. […] The phototoxic index (PI) was calculated as a ratio of IC50 (dark)/IC50 (irradiated).

[2] = system: human colon adenocarcinoma HCT116 cells; assay: Phototoxicity testing, MTT assay, HCT116; type: cell-based; conditions: MTT 72 h
Protocol: as §1, §2
(§3) The phototoxic potency of Ir complexes 1–4 was determined against human cancer Hela, A375, and HCT116 cell lines. Cells were seeded on 96-well tissue culture plates at a density of 5 × 10^3 cells/well in 100 μL of complete DMEM medium and cultured overnight in a humidified incubator. […] The number of cells was determined using a standard MTT or SRB assay. […] The phototoxic index (PI) was calculated as a ratio of IC50 (dark)/IC50 (irradiated).

[3] = system: human lung fibroblast MRC5 cells; assay: Long-term dark effect on noncancerous cells, MTT, MRC5; type: cell-based; conditions: continuous exposure 48 h
Protocol: The low toxicity of nonirradiated Ir complexes toward human noncancerous cells was confirmed by the fact that their effect was very low or even undetectable during long-term exposure when the human primary prostate epithelial hTERT EP156T and human lung fibroblast MRC5 cells were exposed to the complexes continuously for 48 h (Table 2).
After the period of incubation, an MTT assay was performed and evaluated.

[4] = system: human skin melanoma cells A375; assay: Phototoxicity testing, MTT assay, A375; type: cell-based; conditions: MTT 72 h
Protocol: as §1, §2, §3

caspase-3 in HeLa cells = assay: Caspase-3/7 activity assay; type: cell-based, human; conditions: equitoxic concentrations, 1 h dark, 1 h irradiation 420 nm, 2 h recovery
Protocol: Figure 7 and Figure S59 show the morphological alteration observed 2 h after the HeLa cells were treated with Ir complexes 1–4 at their equitoxic concentrations (IC50,72h) and irradiated. […] The whole cells were swollen and rounded (Figure 7B–E). A significant cytoplasm blebbing was evident in the early stages of the process (Figure 7F). The bubbles around the cells were completely clean inside (Figure 7F), distinguishing them from the budding process typical of apoptosis.
The activation of caspase-3 was detected using CellEvent Caspase-3/7 Green - Active Caspase-3/7 Assay Kit (Thermo Fisher Scientific). Briefly, HeLa cells were seeded at a 6-well plate at 3 × 10^5 cells/well density and treated and irradiated as described above (1 h preincubation in the dark, 1 h irradiation at 420 nm). After 2 h of recovery in compound-free media, cells were stained with the CellEventCaspase 3/7 Green Detection Reagent according to the manufacturer’s protocol, and the fluorescence signal was analyzed by flow cytometry.

Compound | IC50 ([1]; 1 h dark, then blue light 1 h, λmax = 420 nm, 58 ± 2 W m–2, MTT 72 h after irradiation, read-out: IC50 HeLa irrad) | IC50 ([1]; sham irradiated, MTT 72 h, read-out: IC50 HeLa sham irrad) | IC50 ([2]; blue light 1 h, λmax = 420 nm, 58 ± 2 W m–2, read-out: IC50 HCT116 irrad) | IC50 ([2]; sham irradiated, read-out: IC50 HCT116 sham irrad) | IC50 [3] | IC50 ([4]; blue light 1 h, λmax = 420 nm, 58 ± 2 W m–2, read-out: IC50 A375 irrad) | IC50 ([4]; sham irradiated, read-out: IC50 A375 sham irrad) | caspase-3 activity (caspase-3 in HeLa cells)
N.N.[Cl][Pt][Cl] [cisPt, cisplatin] | 27 ± 3 µM | 23 ± 4 µM | 27 ± 7 µM | 19 ± 4 µM | 6 ± 0.7 µM | 15 ± 2 µM | 14 ± 1 µM | 
CN[C@@H]1C[C@H]2O[C@@](C)([C@@H]1OC)n1c3ccccc3c3c4c(c5c6ccccc6n2c5c31)C(=O)NC4 [staurosporine] |  |  |  |  |  |  |  | significantly increased signal
